The subject of one data set is M. incognita J2 larvae. Put plainly: Meloidogyne incognita in vitro assays (J2 movement). It counts as in vivo. Conditions: 45 μM, 2 days, relative to DMSO control. The protocol:
M. incognita (Kofoid & White) Chitwood Race 1 (originally isolated in Maryland) was used for all experiments, and was maintained on pepper (Capsicum annuum L.) cv. PA-136 in a greenhouse as previously described^64. Infective J2 juveniles were collected as described in ref.65. The microwell dose-response experiments were carried out similarly to previously described protocols^64, 66. In brief, 100 J2s, in 10 μL of deionized water, were added to the wells of 96-well polystyrene plates, after which 190 μL of deionized water containing dissolved chemical, or DMSO alone, was added to each well. The chemicals were tested at 45 μM, and the final concentration of DMSO in each well was 0.5% (v/v). The wells were covered with a plastic adhesive strip, and the lids of the plates were sealed with parafilm. The plates were incubated at 25° C. The mobile fraction of worms was quantified by counting the number of mobile and immobile worms after 2 days of incubation, and then dividing the number of mobile worms by the total number of worms in the well. Three technical replicates were performed for each treatment, and an average value for the mobile fraction of worms was calculated across the three replicates. The percent effectiveness at inhibiting nematode movement was calculated by dividing the average value for the chemical treatment by the average value for the DMSO control, then subtracting this value from 1, and then multiplying by 100.

In a further data set the test system is tomato plants. Put plainly: Root mass of tomato plants in the infectivity assays. Conditions: 45 μM. In kind it is in vivo, Solanum lycopersicum. The protocol: (§1) An M. incognita population originally collected from grape (Vitis vinifera) in Parlier, Calif., was used for all experiments, and they were maintained on tomato plants (Solanum lycopersicum ‘Rutgers’) as previously described^73. Infective J2 juveniles were collected as described in^73. For the infectivity assays, 90 grams of soil (1:1 sand:loam mix) was added to each cell of several 6-cell plastic garden packs. The soil was drenched with 18 mL of deionized water containing dissolved chemical or DMSO alone. 2,500 infective J2 juveniles were then added to the soil in 2 mL of deionized water, for a total water volume of 20 mL. The final concentration of the chemicals in water was 45 μM. The DMSO concentration varied from 0.1% to 0.8% (v/v) depending on the stock concentration of the chemical. The highest DMSO concentration was used as the DMSO control. The J2s were incubated in the soil and chemical for 24 hours, after which two- to three-week old tomato seedlings were transplanted into the soil (one plant per cell). Two replicates were performed for each chemical treatment, and four replicates were done for the DMSO controls. The whole experiment was replicated twice, in two different batches on two different days, for a total of four replicates for each chemical treatment, and eight replicates for the DMSO controls. Inoculated plants were grown for 8 weeks in a greenhouse, as described^73, under long-day conditions (16-h photoperiod) with 26/18° C. day/night temperatures. After 8 weeks, the plants were destructively harvested. The tops were removed and discarded, and roots were gently washed with water to remove adhering soil. Eggs were extracted by placing rinsed roots in 0.6% sodium hypochlorite and agitating at 300 rpm for 3 min. Roots were then rinsed over nested 250- and 25.4-μm sieves, with eggs collected from the latter and suspended in water. Roots were dried in a 65° C. oven for at least 24 hours, after which dry roots were weighed. The number of eggs from each plant root was counted on a dissection microscope using a haemocytometer, and the number of eggs per milligram of root was calculated by dividing the total egg number by the mass of the dried root material. An average was taken across the replicates performed on the same day, and then normalized to the DMSO control average. To calculate percent effectiveness at inhibiting reproduction, the normalized values were subtracted from 1, and then multiplied by 100. An average percent effectiveness value was then calculated across the two different batches carried out on different days.

The test system of a further data set is Arabidopsis thaliana. Kind of data set: Arabidopsis thaliana greening experiments. In kind it is in vivo. Conditions: 5, 15 and 45 micromolar, greening after 4 days. The protocol:
Greening experiments were performed with Arabidopsis thaliana seeds of wild type Col-0; seeds were surface sterilized in bleach and plated onto 0.5×MS, 0.5% sucrose agar medium supplemented with compounds of interest at 5, 15 and 45 μM concentrations. After 4 d of stratification at 4° C., plates were transferred to a growth chamber (16 h/8 h, 150 μE/m^2) and greening recorded after 4 days. Pictures were recorded by camera (SONY a7s) with FE1.8/55 lens (FE 55 mm F1.8 ZA; SEL55F18Z). Experiments were performed in triplicate for each treatment.

A short description of data set [1]: Limit of solubility / precipitation in assay media. It counts as physicochemical. To be noted: 100 μM in water, 0.5% DMSO (zebrafish assay).
The next data set concerns D. rerio. Kind of data set: Danio rerio (zebrafish) embryo dose-response experiments. It counts as in vivo. Conditions: non-target system; embryos, 24 hours exposure. The protocol: Zebrafish chemical assays were performed similarly to previously described methods^63. In brief, fish were maintained at 28.5° C. on a 14/10 hour light/dark cycle and staged according to hours post fertilization (hpf). For each biological replicate, eggs from LT fish (AB/Tubingen strain) were collected at 4 hpf. At 24 hpf, embryos were arrayed in 24 well plates, 10 per well. In 2 ml tubes, 4 μl of chemical dissolved in DMSO at the appropriate concentration was added to 800 μl of water and then vortexed for 30 s intensively. Water was removed from the embryos in the wells and 800 μl of chemical-treated water was transferred to each of the wells. The DMSO control wells contained DMSO alone. The final DMSO concentration in every well was 0.5% (v/v). […] The embryos were incubated in the chemicals for 24 hours and scored for death and toxicity at 48 hpf. Toxicity was defined as the embryos showing developmental defects such as a curved body, reduced body size, skin whiteness, and heart edema. “Relative viability” was calculated by dividing the number of viable and properly developed embryos in the treatment wells by the average number of viable and properly developed embryos across six DMSO control wells. Three biological replicates were performed for each dose-response experiment, and the relative viability values were averaged across the three replicates.

The test system of the next data set is S. cerevisiae. Put plainly: Saccharomyces cerevisiae (budding yeast) dose-response experiments. In kind it is cell-based. To be noted: non-target system; growth over 18 hours. The protocol:
A saturated culture of the yeast strain RY0568 was diluted to an OD600 of 0.015 with fresh YPD media (see ref. 62). 100 μL of this dilute yeast suspension was added to each well of a 96-well plate. The yeast were grown for 4 hours at 30° C. with shaking at 140 rpm. Using a multichannel pipette, 1 μL of chemical solution was added to each well to achieve the desired final concentrations. The final DMSO concentration was 1% (v/v). The microwell plate was then loaded into a TECAN plate reader set at 30° C. The OD600 of each well was measured over an 18-hour period, and the plate was shaken intermittently throughout the run. The areas under the resultant growth curves were calculated using R scripts adapted from those found in the MESS package. The area under the curve at each concentration of a dose-response assay was divided by the area under the curve for the corresponding DMSO control, resulting in a “relative fitness” value for each concentration tested. Three biological replicates were performed for each dose-response experiment, and the relative fitness values were averaged across the three replicates.

The subject of the next data set is M. incognita. Kind of data set: Meloidogyne incognita infectivity assays (tomato roots in soil). It counts as in vivo. Conditions: 45 μM in soil, 8 weeks, eggs per mg root relative to DMSO control. The protocol: as §1

Take `Cc1csc2nc(-c3ccccc3)cn12` [Compound Ie]: the “% effectiveness at reducing M. incognita movement” value in the data set on M. incognita J2 larvae came out at 4.9%.
Turning to `Clc1ccc(-c2cn3ccsc3n2)cc1` [Ia], the “Normalized root mass (relative to DMSO control)” value in the data set with tomato plants was found to be 1.3. In the data set with Arabidopsis thaliana, the “effect on health and greening of Arabidopsis thaliana plants (phytotoxicity)” value was “some phytotoxicity and yellowing at the highest concentration”. The compound precipitation result in data set [1] was “Some compound precipitation was observed”. Besides, the “D. rerio LC50” value in the data set with D. rerio was “inactive”. In the data set with S. cerevisiae, the “S. cerevisiae LC50” value is “inactive”. Moreover, in the data set with M. incognita, the “% effectiveness at inhibiting reproduction of M. incognita” value was 27.1%.

For the origin of these results see patent US20220264883A1, “IMIDAZOTHIAZOLE COMPOUNDS AND METHODS FOR TREATING PLANT NEMATODE INFECTIONS” (The Governing Council of the University of Toronto, priority 2019, published 2022).
